According to article PMC11189555, “Aryl amino acetamides prevent Plasmodium falciparum ring development via targeting the lipid-transfer protein PfSTART1” (Nature Communications, 2024):

Columns and labels:
[1] = molecular target: T1, recombinant PfSTART1(N330K) (I149-V394) (Plasmodium falciparum, UniProt Q8I298, N330K); test: Isothermal titration calorimetry; assay type: binding; details: for Differential Power DP_Y / ΔH NDH_Y: PfSTART(N330K), ITC replicate data
T1 construct: 8xHis tag (N); TEV protease cleavage site (N); made in house; host or cells: Sf21 insect cells (baculovirus)
T1 sequence (Q8I298 149-394 N330K): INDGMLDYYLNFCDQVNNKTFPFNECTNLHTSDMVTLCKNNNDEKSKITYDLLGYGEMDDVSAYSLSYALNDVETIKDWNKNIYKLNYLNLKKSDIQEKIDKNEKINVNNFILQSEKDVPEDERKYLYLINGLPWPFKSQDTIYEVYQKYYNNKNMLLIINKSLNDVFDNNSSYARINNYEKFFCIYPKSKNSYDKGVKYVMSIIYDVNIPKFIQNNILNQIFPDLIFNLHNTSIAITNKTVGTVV
From the text: S. frugiperda codon optimised full-length N309K and N330K PfSTART1 mutants were first synthesised by Integrated DNA Technologies, and then I149 forward and V394 reverse primers utilised to clone the same I149-V394 construct boundaries into the modified pAcGP67a expression vector with a N-terminal GP67-signal sequence, 8xHis tag, and TEV protease cleavage site. As a result of the subcloning, SSG was removed upstream of the TEV cleavage site. Construct boundaries and incorporation of the N309K and N330K mutations was verified by Sanger sequencing. The PfSTART1 mutants were expressed and purified as per wild-type PfSTART1.
ITC experiments were performed on a MicroCal PEAQ-ITC calorimeter at 25 °C, with a stirring speed of 750 rpm and a reference power of 5 μcal/sec. 500 μM M-833 series inhibitor solutions were diluted to 10 μM in 50 mM NaPO4^-3 (pH 7.4), 150 mM NaCl with a final DMSO concentration of 2% (v/v) (cell sample). PfSTART1 protein was dialysed extensively against 50 mM NaPO4^-3 (pH 7.4), 150 mM NaCl, before diluting to 90 μM in the same buffer with 2% (v/v) DMSO (syringe sample). The first injection was 0.4 μL over a 0.8 s duration, and the remaining 19 injections were 2 μL of 4 s duration, with 150 s injection spacing. Data were collected and analysed using the PEAQ-ITC software (MicroCal) and fit by a single site binding model. A fitted offset (constant control heat) was also applied to the integrated heat.

[2] = molecular target: T2, PfSTART1 (Plasmodium falciparum, UniProt Q8I298); assay type: binding; details: 100 µM W-991 vs DMSO; 7-25% AEF; p = 0.0014
T2 construct: endogenous in cells; host or cells: P. falciparum mature blood stages (30-42 hpi), soluble lysate
Protocol: The experiment was carried out in three biological replicates. Saponin-liberated mature parasite stages (30-42 hpi) were resuspended in PBS and lysed by 3x flash freeze/thawing using liquid N2, followed by 10 x mechanical sheering with a 29 G needle-syringe, and soluble protein isolation through ultracentrifugation (100,000 g; 20 min, 4 °C). Protein lysate was exposed to the 100 µM of W-991 or the vehicle control (DMSO) for 3 min and subsequently incubated with varying concentration of the solvent mixture ‘AEF’ (50% Acetone, 50% Ethanol, 0.1% Formate) to a final concentration of 7-25% (v/v) with 2% intervals, for 20 min at 37 °C at 800 rpm on a Thermomixer (Eppendorf). Denatured protein was pelleted through centrifugation (4 °C, 18,000 g, 20 min), and the soluble phase was recovered and pulled together in equivolume ratios into two samples; Gradient 1 ‘G1’: 7-15% EAF and Gradient 2 ‘G2’: 17-25% EAF, respectively. […]
Peptide samples were analysed on Orbitrap Eclipse Tribrid mass spectrometer that is interfaced with the Neo Vanquish liquid chromatography system. […] Subsequently, the differential abundance analysis (moderated t-test, based on limma package[81]) of P. falciparum proteins was conducted in the R environment (R version 4.2.0; R Studio Version 2023.12.1 + 402) using precursor normalised MaxLFQ data for proteins detected with ≥2 peptides. […]

T2 sequence (Q8I298 entry or part of it): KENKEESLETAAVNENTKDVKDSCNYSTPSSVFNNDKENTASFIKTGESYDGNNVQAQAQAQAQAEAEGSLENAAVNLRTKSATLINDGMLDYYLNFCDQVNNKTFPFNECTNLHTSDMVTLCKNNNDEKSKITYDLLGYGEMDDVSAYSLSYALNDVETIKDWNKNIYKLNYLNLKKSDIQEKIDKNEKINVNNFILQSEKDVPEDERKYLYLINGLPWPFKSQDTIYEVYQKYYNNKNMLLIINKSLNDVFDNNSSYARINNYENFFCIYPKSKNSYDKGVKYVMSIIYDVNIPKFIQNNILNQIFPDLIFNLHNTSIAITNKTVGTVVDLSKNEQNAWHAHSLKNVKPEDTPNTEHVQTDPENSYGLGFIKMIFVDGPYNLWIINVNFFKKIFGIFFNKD

CC(C)(Nc1ccc(Cl)c(S(=O)(=O)N2CCOCC2)c1)C(=O)Nc1ccc(F)c(Cl)c1 [W-991]
interaction with PfSTART1(N330K) ([1]; ITC): no interaction | Differential Power DP_Y ([1]; DP_X 0.083333): -0.001242 | Differential Power DP_Y ([1]; DP_X 0.1): -0.0011 | ΔH NDH_Y ([1]; NDH_X 0.104703): -2.588 | ΔH NDH_Y ([1]; NDH_X 0.192876): -2.749 | soluble protein level in the presence of compound (stabilisation) [2]: significantly (p < 0.01) increased levels
